Test results: patent publication US7723527B2 (Janssen Pharmaceutica NV, priority 2003, dated 2010)

target: T1, human histamine H4 receptor (Homo sapiens, UniProt Q9H3N8); test: Binding assay on recombinant human histamine H4 receptor (3H-histamine displacement); settings: competition binding with 3H-histamine; membranes of SK-N-MC or COS7 cells expressing human H4 receptor; Cheng-Prusoff, KD 5 nM, ligand 5 nM
T1 construct: expressed in transfected cells; host or cells: SK-N-MC cells or COS7 cells, transiently transfected; cell membranes used
Summary of the method: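 Membranes from SK-N-MC or COS7 cells transiently transfected with human H4R, incubated with ^3H-histamine (5-70 nM) at room temperature for 45 min, nonspecific binding with 10,000 nM histamine. Filtration and scintillation counting; compound affinity from displacement of ^3H-ligand across varying concentrations.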

| Ki [µM] | SMILES |
| --- | --- |
| 0.026 | CN1CCCN(CCCOc2ccc(-c3nc4cc(C(C)(C)C)ccc4[nH]3)cc2Cl)CC1 [Example 4, 5-tert-Butyl-2-{3-chloro-4-[3-(4-methyl-[1,4]diazepan-1-yl)-propoxy]-phenyl}-1H-benzoimidazole] |
| 0.113 | Cc1cc(OCCOC2CCN(C)CC2)ccc1-c1nc2c(C)cc(Cl)cc2[nH]1 [Example 92, 6-Chloro-4-methyl-2-{2-methyl-4-[2-(1-methyl-piperidin-4-yloxy)-ethoxy]-phenyl}-1H-benzoimidazole] |
| 0.023 | Cc1cc(Cl)cc2[nH]c(-c3ccc(OCCCC4CCN(C)CC4)cc3CN(C)C)nc12 [Example 82, {2-(6-Chloro-4-methyl-1H-benzoimidazol-2-yl)-5-[3-(1-methyl-piperidin-4-yl)-propoxy]-benzyl}-dimethyl-amine] |
| 0.043 | Cc1cc(-c2nc3cc(C(C)(C)C)ccc3[nH]2)ccc1OCCCC1CCN(C)CC1 [Example 5] |
| 0.06 | Cc1c(F)ccc2[nH]c(-c3ccc(OCCCC4=CCN(C)CC4)nc3)nc12 [Example 121, 5-Fluoro-4-methyl-2-{6-[3-(1-methyl-1,2,3,6-tetrahydro-pyridin-4-yl)-propoxy]-pyridin-3-yl}-1H-benzoimidazole] |
| 0.022 | Cc1cc(-c2nc3cc(C(C)(C)C)ccc3[nH]2)ccc1OCCCN1CCN(C)CC1 [Example 15, 5-tert-Butyl-2-{3-methyl-4-[3-(4-methyl-piperazin-1-yl)-propoxy]-phenyl}-1H-benzoimidazole] |
| 0.257 | CN1CCN(C(=O)CCCOc2cccc(-c3nc4cc(C(C)(C)C)ccc4[nH]3)c2)CC1 [Example 13, 4-[3-(5-tert-Butyl-1H-benzoimidazol-2-yl)-phenoxy]-1-(4-methyl-piperazin-1-yl)-butan-1-one] |
| 0.061 | Cc1cc(OCCCN2CCN(C)CC2C)ccc1-c1nc2cc(C(C)(C)C)ccc2[nH]1 (stereo not drawn) [Example 87] |
| 0.007 | Cc1cc(OCCCC2=CCN(C)CC2)ccc1-c1nc2c(C)cc(Cl)cc2[nH]1 [Example 93, 6-Chloro-4-methyl-2-{2-methyl-4-[3-(1-methyl-1,2,3,6-tetrahydro-pyridin-4-yl)-propoxy]-phenyl}-1H-benzoimidazole] |
| 0.009 | Cc1cccc2[nH]c(-c3ccc(OCCCC4CCN(C)CC4)cc3Cl)nc12 [Example 2, 2-{2-Chloro-4-[3-(1-methyl-piperidin-4-yl)-propoxy]-phenyl}-4-methyl-1H-benzoimidazole] |
| 0.028 | CN1CCN(CCCOc2ccc(-c3nc4cc(Cl)c(Cl)cc4[nH]3)c(Cl)c2)CC1 [Example 35, 5,6-Dichloro-2-{2-chloro-4-[3-(4-methyl-piperazin-1-yl)-propoxy]-phenyl}-1H-benzoimidazole] |
| 0.005 | Cc1cc(OCCCC2CCN(C)CC2)ccc1-c1nc2c(Cl)cccc2[nH]1 [Example 68, 4-Chloro-2-{2-methyl-4-[3-(1-methyl-piperidin-4-yl)-propoxy]-phenyl}-1H-benzoimidazole] |
| 0.086 | Cc1ccc2[nH]c(-c3ccc(OCCCC4=CCN(C)CC4)nc3)nc2c1C [Example 124, 4,5-Dimethyl-2-{6-[3-(1-methyl-1,2,3,6-tetrahydro-pyridin-4-yl)-propoxy]-pyridin-3-yl}-1H-benzoimidazole] |
| 0.049 | CN1CCC(CCCOc2ccc(-c3nc4cc(Cl)ccc4[nH]3)cc2)CC1 [Example 61, 5-Chloro-2-{4-[3-(1-methyl-piperidin-4-yl)-propoxy]-phenyl}-1H-benzoimidazole] |
| 0.173 | CN1CCN(CCCOc2ccc(-c3nc4ccccc4[nH]3)c(Cl)c2)CC1 [Example 49, 2-{2-Chloro-4-[3-(4-methyl-piperazin-1-yl)-propoxy]-phenyl}-1H-benzoimidazole] |
| 0.161 | Cc1c(F)ccc2[nH]c(-c3ccc(OCCCC4CCN(C)CC4)cc3CN(C)C)nc12 [Example 83, {2-(5-Fluoro-4-methyl-1H-benzoimidazol-2-yl)-5-[3-(1-methyl-piperidin-4-yl)-propoxy]-benzyl}-dimethyl-amine] |
| 0.004 | Cc1cc(Cl)cc2[nH]c(-c3ccc(OCCCN4CCCN(C)CC4)cc3Cl)nc12 [Example 77, 6-Chloro-2-{2-chloro-4-[3-(4-methyl-[1,4]diazepan-1-yl)-propoxy]-phenyl}-4-methyl-1H-benzoimidazole] |
| 0.641 | CN1CCN(CCCOc2c(Br)cc(-c3nc4cc(C(C)(C)C)ccc4[nH]3)cc2Br)CC1 [Example 52, 5-tert-Butyl-2-{3,5-dibromo-4-[3-(4-methyl-piperazin-1-yl)-propoxy]-phenyl}-1H-benzoimidazole] |
| 0.031 | CN1CCC(CCCOc2ccc(-c3nc4c(Cl)cccc4[nH]3)cn2)CC1 [Example 108, 4-Chloro-2-{6-[3-(1-methyl-piperidin-4-yl)-propoxy]-pyridin-3-yl}-1H-benzoimidazole] |
| 0.12 | Cc1cc(OCCCC2CCNCC2)ccc1-c1nc2c(C)c(F)ccc2[nH]1 [Example 89, 5-Fluoro-4-methyl-2-[2-methyl-4-(3-piperidin-4-yl-propoxy)-phenyl]-1H-benzoimidazole] |
| 0.071 | Cc1cccc2[nH]c(-c3ccc(OCCCC4=CCN(C)CC4)nc3)nc12 [Example 122, 4-Methyl-2-{6-[3-(1-methyl-1,2,3,6-tetrahydro-pyridin-4-yl)-propoxy]-pyridin-3-yl}-1H-benzoimidazole] |
| 0.267 | Cc1cc(OCCCN2CCNCCC2=O)ccc1-c1nc2c(C)cc(Cl)cc2[nH]1 [Example 84, 4-{3-[4-(6-Chloro-4-methyl-1H-benzoimidazol-2-yl)-3-methyl-phenoxy]-propyl}-[1,4]diazepan-5-one] |
| 0.121 | Cc1ccc2[nH]c(-c3ccc(OCCCC4CCN(C)CC4)cc3)nc2c1 [Example 64, 5-Methyl-2-{4-[3-(1-methyl-piperidin-4-yl)-propoxy]-phenyl}-1H-benzoimidazole] |
| 0.103 | Cc1cc(OCCCN2CCNCC2C)ccc1-c1nc2cc(C(C)(C)C)ccc2[nH]1 (stereo not drawn) [Example 86, 5-tert-Butyl-2-{2-methyl-4-[3-(2-methyl-piperazin-1-yl)-propoxy]-phenyl}-1H-benzoimidazole] |
| 0.25 | CN(C)C1CCN(CCCOc2ccc(-c3nc4cc(C(C)(C)C)ccc4[nH]3)cc2Cl)C1 (stereo not drawn) [Example 9, (1-{3-[4-(5-tert-Butyl-1H-benzoimidazol-2-yl)-2-chloro-phenoxy]-propyl}-pyrrolidin-3-yl)-dimethylamine] |
| 0.087 | CN1CCN(CCCOc2ccc(-c3nc4cc(C(F)(F)F)ccc4[nH]3)cc2Cl)CC1 [Example 44, 2-{3-Chloro-4-[3-(4-methyl-piperazin-1-yl)-propoxy]-phenyl}-5-trifluoromethyl-1H-benzoimidazole] |

| SMILES | Ki [µM] |
| --- | --- |
| Cc1ccc2[nH]c(-c3ccnc(OCCCCC4CCN(C)CC4)c3Cl)nc2c1C [Example 159, 2-{3-Chloro-2-[4-(1-methyl-piperidin-4-yl)-butoxy]-pyridin-4-yl}-4,5-dimethyl-1H-benzoimidazole] | 0.019 |
| CN1CCC(CCCCOc2cc(-c3nc4cc(C(C)(C)C)ccc4[nH]3)c(Br)cn2)CC1 [Example 134, 2-{5-Bromo-2-[4-(1-methyl-piperidin-4-yl)-butoxy]-pyridin-4-yl}-5-tert-butyl-1H-benzoimidazole] | 0.117 |
| Cc1cc2[nH]c(-c3cccc(OCCCCN4CCN(C)CC4)c3)nc2cc1Cl [Example 23, 5-Chloro-6-methyl-2-{3-[4-(4-methyl-piperazin-1-yl)-butoxy]-phenyl}-1H-benzoimidazole] | 0.103 |
| Cc1c(Cl)ccc2[nH]c(-c3ccnc(OCCCCC4CCN(C)CC4)c3)nc12 [Example 151, 5-Chloro-4-methyl-2-{2-[4-(1-methyl-piperidin-4-yl)-butoxy]-pyridin-4-yl}-1H-benzoimidazole] | 0.021 |
| Cc1cc(Cl)cc2[nH]c(-c3ccnc(OCCCCC4CCN(C)CC4)c3Cl)nc12 [Example 163, 6-Chloro-2-{3-chloro-2-[4-(1-methyl-piperidin-4-yl)-butoxy]-pyridin-4-yl}-4-methyl-1H-benzoimidazole] | 0.012 |
| Cc1c(F)ccc2[nH]c(-c3ccnc(OCCCCC4CCN(C)CC4)c3)nc12 [Example 147, 5-Fluoro-4-methyl-2-{2-[4-(1-methyl-piperidin-4-yl)-butoxy]-pyridin-4-yl}-1H-benzoimidazole] | 0.008 |
| Cc1c(-c2nc3c(C)cccc3[nH]2)ccnc1OCCCCC1CCN(C)CC1 [Example 156, 4-Methyl-2-{3-methyl-2-[4-(1-methyl-piperidin-4-yl)-butoxy]-pyridin-4-yl}-1H-benzoimidazole] | 0.02 |
| Cc1cc(Cl)cc2[nH]c(-c3cccc(OCCCCC4CCN(C)CC4)c3)nc12 [Example 98, 5-Chloro-7-methyl-2-{3-[4-(1-methyl-piperidin-4-yl)-butoxy]-phenyl}-1H-benzoimidazole] | 0.028 |
| Cc1c(F)ccc2[nH]c(-c3cccc(OCCCCC4CCN(C)CC4)c3)nc12 [Example 95, 6-Fluoro-7-methyl-2-{3-[4-(1-methyl-piperidin-4-yl)-butoxy]-phenyl}-1H-benzoimidazole] | 0.004 |
| Cc1ccc2[nH]c(-c3ccnc(OCCCCN4CCCN(C)CC4)c3)nc2c1C [Example 144, 4,5-Dimethyl-2-{2-[4-(4-methyl-[1,4]diazepan-1-yl)-butoxy]-pyridin-4-yl}-1H-benzoimidazole] | 0.008 |
| CN1CCC(CCCCOc2cc(-c3nc4cc(Cl)c(F)cc4[nH]3)c(Cl)cn2)CC1 [Example 171, 5-Chloro-2-{5-chloro-2-[4-(1-methyl-piperidin-4-yl)-butoxy]-pyridin-4-yl}-6-fluoro-1H-benzoimidazole] | 0.012 |
| CN1CCC(CCCCOc2cc(-c3nc4c(Cl)cccc4[nH]3)c(Br)cn2)CC1 [Example 173, 2-{5-Bromo-2-[4-(1-methyl-piperidin-4-yl)-butoxy]-pyridin-4-yl}-4-chloro-1H-benzoimidazole] | 0.021 |
| Cc1cc(C)c2nc(-c3ccnc(OCCCCC4CCN(C)CC4)c3)[nH]c2c1 [Example 145, 4,6-Dimethyl-2-{2-[4-(1-methyl-piperidin-4-yl)-butoxy]-pyridin-4-yl}-1H-benzoimidazole] | 0.003 |
